Results from ChEMBL document CHEMBL5143682, “Design and synthesis of cinnamic acid triptolide ester derivatives as potent antitumor agents and their biological evaluation” (Bioorg Med Chem Lett, 2022).

Tested on: HepG2
Test: Antiproliferative activity against human HepG2 cells assessed as reduction in cell viability measured after 48 hrs by CCK-8 assay
Type: functional, cell-based
Details: HepG2, 48 h

| SMILES | IC50 |
| --- | --- |
| CCOP(=O)(OCC)Oc1ccc(/C=C/C(=O)O[C@@H]2[C@@]3(C(C)C)O[C@H]3[C@@H]3O[C@]34[C@]23O[C@H]3C[C@H]2C3=C(CC[C@@]24C)C(=O)OC3)cc1 | 578 nM |
| CCOP(=O)(OCC)Oc1ccc(/C=C/C(=O)O[C@@H]2[C@@]3(C(C)C)O[C@H]3[C@@H]3O[C@]34[C@]23O[C@H]3C[C@H]2C3=C(CC[C@@]24C)C(=O)OC3)cc1OC | 355 nM |
| COc1ccc(/C=C/C(=O)O[C@@H]2[C@@]3(C(C)C)O[C@H]3[C@@H]3O[C@]34[C@]23O[C@H]3C[C@H]2C3=C(CC[C@@]24C)C(=O)OC3)cc1 | 654 nM |
| CC(C)[C@]12O[C@H]1[C@@H]1O[C@]13[C@]1(O[C@H]1C[C@H]1C4=C(CC[C@@]13C)C(=O)OC4)[C@@H]2OC(=O)/C=C/c1cc(Br)ccc1F | 591 nM |
| CC(C)[C@]12O[C@H]1[C@@H]1O[C@]13[C@]1(O[C@H]1C[C@H]1C4=C(CC[C@@]13C)C(=O)OC4)[C@@H]2OC(=O)/C=C/c1cccnc1 | 538 nM |
| COc1ccc(/C=C/C(=O)O[C@@H]2[C@@]3(C(C)C)O[C@H]3[C@@H]3O[C@]34[C@]23O[C@H]3C[C@H]2C3=C(CC[C@@]24C)C(=O)OC3)cc1OC | 686 nM |
| CC(C)[C@]12O[C@H]1[C@@H]1O[C@]13[C@]1(O[C@H]1C[C@H]1C4=C(CC[C@@]13C)C(=O)OC4)[C@@H]2OC(=O)/C=C/c1ccccc1F | 381 nM |
| CCc1ccc(/C=C/C(=O)O[C@@H]2[C@@]3(C(C)C)O[C@H]3[C@@H]3O[C@]34[C@]23O[C@H]3C[C@H]2C3=C(CC[C@@]24C)C(=O)OC3)cc1 | 454 nM |
| CC(C)[C@]12O[C@H]1[C@@H]1O[C@]13[C@]1(O[C@H]1C[C@H]1C4=C(CC[C@@]13C)C(=O)OC4)[C@@H]2OC(=O)/C=C/c1ccccc1N1CCCCC1 | 1720 nM |
| CC(C)[C@]12O[C@H]1[C@@H]1O[C@]13[C@]1(O[C@H]1C[C@H]1C4=C(CC[C@@]13C)C(=O)OC4)[C@@H]2OC(=O)/C=C/c1ccc(C(F)(F)F)cc1 | 899 nM |
| CC(C)[C@]12O[C@H]1[C@@H]1O[C@]13[C@]1(O[C@H]1C[C@H]1C4=C(CC[C@@]13C)C(=O)OC4)[C@@H]2O [TRIPTOLIDE] | 468 nM |

Other lines, results leading:

| IC50 | SMILES |
| --- | --- |
| 564 nM | CC(C)[C@]12O[C@H]1[C@@H]1O[C@]13[C@]1(O[C@H]1C[C@H]1C4=C(CC[C@@]13C)C(=O)OC4)[C@@H]2OC(=O)/C=C/c1ccc(S(C)(=O)=O)cc1 |
| 695 nM | CC(C)[C@]12O[C@H]1[C@@H]1O[C@]13[C@]1(O[C@H]1C[C@H]1C4=C(CC[C@@]13C)C(=O)OC4)[C@@H]2OC(=O)/C=C/c1ccc([N+](=O)[O-])cc1 |
| 663 nM | COc1cc(/C=C/C(=O)O[C@@H]2[C@@]3(C(C)C)O[C@H]3[C@@H]3O[C@]34[C@]23O[C@H]3C[C@H]2C3=C(CC[C@@]24C)C(=O)OC3)cc([N+](=O)[O-])c1OC |
| 818 nM | COc1cc(CCC(=O)O[C@@H]2[C@@]3(C(C)C)O[C@H]3[C@@H]3O[C@]34[C@]23O[C@H]3C[C@H]2C3=C(CC[C@@]24C)C(=O)OC3)ccc1O |
| 1020 nM | COc1cc(/C=C/C(=O)O[C@@H]2[C@@]3(C(C)C)O[C@H]3[C@@H]3O[C@]34[C@]23O[C@H]3C[C@H]2C3=C(CC[C@@]24C)C(=O)OC3)ccc1OCc1ccccc1 |
| 696 nM | CC(C)[C@]12O[C@H]1[C@@H]1O[C@]13[C@]1(O[C@H]1C[C@H]1C4=C(CC[C@@]13C)C(=O)OC4)[C@@H]2OC(=O)/C=C/c1ccc(N(C)C)cc1 |
| 439 nM | CC(C)[C@]12O[C@H]1[C@@H]1O[C@]13[C@]1(O[C@H]1C[C@H]1C4=C(CC[C@@]13C)C(=O)OC4)[C@@H]2OC(=O)/C=C/c1ccc(F)cc1 |
| 591 nM | CC(C)[C@]12O[C@H]1[C@@H]1O[C@]13[C@]1(O[C@H]1C[C@H]1C4=C(CC[C@@]13C)C(=O)OC4)[C@@H]2OC(=O)/C=C/c1ccc(C#N)cc1 |
| 839 nM | CC(C)[C@]12O[C@H]1[C@@H]1O[C@]13[C@]1(O[C@H]1C[C@H]1C4=C(CC[C@@]13C)C(=O)OC4)[C@@H]2OC(=O)CCc1cccnc1 |
| 838 nM | CC(C)[C@]12O[C@H]1[C@@H]1O[C@]13[C@]1(O[C@H]1C[C@H]1C4=C(CC[C@@]13C)C(=O)OC4)[C@@H]2OC(=O)/C=C/c1ccc(Br)cc1 |
| 413 nM | CC(C)[C@]12O[C@H]1[C@@H]1O[C@]13[C@]1(O[C@H]1C[C@H]1C4=C(CC[C@@]13C)C(=O)OC4)[C@@H]2OC(=O)/C=C/c1ccccc1 |
| 620 nM | CC(C)[C@]12O[C@H]1[C@@H]1O[C@]13[C@]1(O[C@H]1C[C@H]1C4=C(CC[C@@]13C)C(=O)OC4)[C@@H]2OC(=O)/C=C/c1ccc(N2CCCCC2)cc1 |
| 689 nM | COc1cc(/C=C/C(=O)O[C@@H]2[C@@]3(C(C)C)O[C@H]3[C@@H]3O[C@]34[C@]23O[C@H]3C[C@H]2C3=C(CC[C@@]24C)C(=O)OC3)cc(OC)c1OC |
| 783 nM | CC(C)[C@]12O[C@H]1[C@@H]1O[C@]13[C@]1(O[C@H]1C[C@H]1C4=C(CC[C@@]13C)C(=O)OC4)[C@@H]2OC(=O)/C=C/c1ccc(N2CCOCC2)cc1 |
